Here are results for 2 molecules from patent publication US20050048508A1, “Trehalose receptor and method for detecting trehalose with the same” (KABUSHIKI KAISHA HAYASHIBARA SEIBUTSU KAGAKU KENKYUJO, priority 2002, published 2005).

The target of this assay is T1, T1R2 and T1R3 with G protein α-subunits (α15 and α16/Z chimeric protein) (Mus musculus, UniProt Q925D8+Q925I4, E350G/G527D/I706N/P352R/R175Q).
T1 construct: expressed in transfected cells; host or cells: 293 cells, RCB 1637 (human embryonic kidney)
T1 sequence (Q925I4 20-843 R175Q/E350G/P352R/G527D): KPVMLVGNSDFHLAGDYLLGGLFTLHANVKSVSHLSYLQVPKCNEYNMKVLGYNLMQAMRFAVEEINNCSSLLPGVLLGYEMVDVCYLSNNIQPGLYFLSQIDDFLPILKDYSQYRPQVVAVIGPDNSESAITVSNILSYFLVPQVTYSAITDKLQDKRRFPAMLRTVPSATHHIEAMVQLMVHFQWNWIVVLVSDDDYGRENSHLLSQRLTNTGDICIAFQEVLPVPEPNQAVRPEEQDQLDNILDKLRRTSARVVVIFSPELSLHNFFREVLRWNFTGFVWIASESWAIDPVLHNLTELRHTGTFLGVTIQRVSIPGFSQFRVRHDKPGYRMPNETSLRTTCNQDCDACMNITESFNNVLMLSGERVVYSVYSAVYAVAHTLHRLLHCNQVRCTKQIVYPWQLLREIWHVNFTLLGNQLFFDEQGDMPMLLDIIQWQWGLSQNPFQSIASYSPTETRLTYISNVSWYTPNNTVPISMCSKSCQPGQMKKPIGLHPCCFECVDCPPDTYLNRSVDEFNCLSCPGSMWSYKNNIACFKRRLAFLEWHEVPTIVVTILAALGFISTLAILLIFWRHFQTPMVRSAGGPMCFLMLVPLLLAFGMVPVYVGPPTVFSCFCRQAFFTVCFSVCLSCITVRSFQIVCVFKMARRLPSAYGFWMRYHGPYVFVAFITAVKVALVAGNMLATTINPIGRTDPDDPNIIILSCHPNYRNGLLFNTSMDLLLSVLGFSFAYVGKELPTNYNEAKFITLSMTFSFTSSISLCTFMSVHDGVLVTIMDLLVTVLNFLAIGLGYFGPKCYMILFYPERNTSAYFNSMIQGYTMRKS
T1 sequence (Q925D8 21-858 I706N): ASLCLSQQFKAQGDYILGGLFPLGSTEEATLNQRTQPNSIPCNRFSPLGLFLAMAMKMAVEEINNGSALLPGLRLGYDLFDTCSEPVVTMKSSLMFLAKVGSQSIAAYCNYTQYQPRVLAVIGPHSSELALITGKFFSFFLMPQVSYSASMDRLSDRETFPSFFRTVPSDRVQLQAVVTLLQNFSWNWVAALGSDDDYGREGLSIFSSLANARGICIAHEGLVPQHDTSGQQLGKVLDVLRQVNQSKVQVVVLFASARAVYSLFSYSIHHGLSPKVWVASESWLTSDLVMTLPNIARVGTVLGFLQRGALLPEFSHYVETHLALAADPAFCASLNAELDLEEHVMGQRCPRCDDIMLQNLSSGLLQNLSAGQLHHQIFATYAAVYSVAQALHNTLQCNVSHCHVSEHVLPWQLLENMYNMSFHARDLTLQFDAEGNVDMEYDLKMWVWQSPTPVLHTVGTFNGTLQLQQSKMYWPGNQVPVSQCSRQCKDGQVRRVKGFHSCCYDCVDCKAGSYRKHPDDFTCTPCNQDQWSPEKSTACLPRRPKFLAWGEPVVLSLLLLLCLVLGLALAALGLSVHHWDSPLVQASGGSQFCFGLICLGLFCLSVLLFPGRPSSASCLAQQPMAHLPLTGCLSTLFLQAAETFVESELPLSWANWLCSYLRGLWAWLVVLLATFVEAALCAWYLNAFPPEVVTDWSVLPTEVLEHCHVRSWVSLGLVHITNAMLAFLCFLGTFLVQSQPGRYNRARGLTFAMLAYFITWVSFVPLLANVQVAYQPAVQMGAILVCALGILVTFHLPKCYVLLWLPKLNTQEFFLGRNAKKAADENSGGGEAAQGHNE
Description: Intracellular calcium ion assay, 293 cells coexpressing G protein α-subunits, T1R2 and T1R3. Format: cell-based. The settings on record: 293 cells: T1R2 + T1R3 + G protein α-subunits, 0.67 ml of 1 M saccharide solution added to 2 ml cell suspension, FLUO-4 AM. As for the experimental part:
The coexpression vector for the G protein α-subunit α15 and the G protein α16/Z chimeric protein (hereinafter designated as “G protein α-subunits”) obtained in Example 1-3 was gene transferred to 293 cells, RCB 1637, a human embryonic kidney cell line, available from the Riken Bioresource Center, Ibaraki, Japan, by conventional lipofection. The gene transferred cells were suspended in Dulbecco's Modified Eagle's Medium (D-MEM) supplemented with 1 mg/L of “PUROMYCIN”, a trade mane of puromycin commercialized by Edge Biosystems, MD, USA, and 10% (v/v) of fetal calf serum to give a cell density of 2×10^6 cells/ml and cultured in a plastic petri dish for cell culture. After 10 to 14 days of incubation, a puromycin-resistant cell colony was collected and confirmed its production of the G protein α-subunit proteins with an index of their mRNA level by conventional RT-PCR. Thus, a cell line capable of expressing the G protein α-subunit proteins was established. To the cells were gene transferred an expression vector for the sweet taste receptor protein T1R1, T1R2, or T1R3 in Example 2-2; or a coexpression vector for a pair of T1R1 and T1R2, T1R1 and T1R3, or T1R2 and T1R3 by conventional lipofection. The resulting cells were suspended in D-MEM supplemented with 1 mg/L of “PUROMYCIN”, 500 mg/L of “GENETICIN”, and 10% (v/v) of fetal calf serum and cultured in a plastic petri dish for cell culture. […]
The captioned reactivity test was conducted according to a conventional intracellular calcium ion assay: 293 Cells prepared in Example 3, capable of coexpressing the G protein α-subunits and the sweet taste receptor(s), were cultured in a plastic petri dish for cell culture until reaching its confluent phase. […] Two milliliters of the resultant cell suspension was injected into a glass cuvette, commercialized by Hitachi, Ltd., Tokyo, Japan, and analyzed on “HITACHI 650-40”, a fluorescence spectrophotometer commercialized by Hitachi, Ltd., Tokyo, Japan. […]
Background: A change in cytosolic calcium serves as a functional read-out for many receptors and channels.

On to `OC[C@H]1O[C@H](O[C@H]2O[C@H](CO)[C@@H](O)[C@H](O)[C@H]2O)[C@H](O)[C@@H](O)[C@@H]1O` [Trehalose], for which the “Influx of calcium ion” value is “Positive”.
With `OC[C@H]1O[C@@](CO)(O[C@H]2O[C@H](CO)[C@@H](O)[C@H](O)[C@H]2O)[C@@H](O)[C@@H]1O` [Sucrose, reference compound], the “Influx of calcium ion” value is given as “Positive”. For the same molecule, the “Influx of calcium ion” value (listed as sucrose) is on record as “detected”.
